What was measured:
[1] = target: T1, human IDO (IDO1-expressing HEK293 cells) (Homo sapiens, UniProt P14902); test: Cell based kynurenine assay, IDO1-expressing HEK293 cell clones; details: IDO1-expressing HEK293 cells, 24 hours, geometric mean; read-out: HEK293 IDO1 Kynurenine GMean IC50 (μM) (Cellular Assay)
T1 construct: expressed in transfected cells
Outline: (§1)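 HEK293 clones stably expressing human IDO1 or human TDO (CMV promoter), 2.5×10^4 cells/well, given serial compound dilutions for 24 h. Kynurenine measured in supernatant; inhibition relative to cell/0.2% DMSO and media-only controls. IC50 by nonlinear regression.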

[2] = target: T2, human TDO (TDO-expressing HEK293 cells) (Homo sapiens, UniProt P48775); test: Cell based kynurenine assay, TDO-expressing HEK293 cell clones; details: TDO-expressing HEK293 cells, 24 hours, geometric mean; read-out: HEK293 TDO Kynurenine GMean IC50 (μM) (Cellular Assay)
T2 construct: expressed in transfected cells
T2 sequence (P48775 whole entry): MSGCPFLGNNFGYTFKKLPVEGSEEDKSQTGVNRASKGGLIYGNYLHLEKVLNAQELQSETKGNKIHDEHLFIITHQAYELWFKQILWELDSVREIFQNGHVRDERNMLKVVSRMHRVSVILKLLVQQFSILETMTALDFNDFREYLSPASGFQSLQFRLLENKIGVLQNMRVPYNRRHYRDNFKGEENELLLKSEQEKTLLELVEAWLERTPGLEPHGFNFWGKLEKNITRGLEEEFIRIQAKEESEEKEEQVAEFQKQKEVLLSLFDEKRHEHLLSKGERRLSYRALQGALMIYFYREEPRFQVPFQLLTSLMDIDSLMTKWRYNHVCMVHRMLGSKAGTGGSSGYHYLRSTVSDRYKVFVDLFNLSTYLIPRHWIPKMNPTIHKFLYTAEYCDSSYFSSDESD
Outline: as §1

[3] = target: T3, Human Indoleamine 2,3-dioxygenase (IDO) (Homo sapiens, UniProt P14902); test: Human IDO enzymatic assay (kynurenine level); assay type: biochemical; details: 6 nM IDO, 10 μM L-Trp; geometric mean; read-out: IDO1 GMean: IC50 (μM) (Biochemical Assay)
T3 construct: His tag (N); made in house; host or cells: E. coli
T3 sequence (P14902 whole entry): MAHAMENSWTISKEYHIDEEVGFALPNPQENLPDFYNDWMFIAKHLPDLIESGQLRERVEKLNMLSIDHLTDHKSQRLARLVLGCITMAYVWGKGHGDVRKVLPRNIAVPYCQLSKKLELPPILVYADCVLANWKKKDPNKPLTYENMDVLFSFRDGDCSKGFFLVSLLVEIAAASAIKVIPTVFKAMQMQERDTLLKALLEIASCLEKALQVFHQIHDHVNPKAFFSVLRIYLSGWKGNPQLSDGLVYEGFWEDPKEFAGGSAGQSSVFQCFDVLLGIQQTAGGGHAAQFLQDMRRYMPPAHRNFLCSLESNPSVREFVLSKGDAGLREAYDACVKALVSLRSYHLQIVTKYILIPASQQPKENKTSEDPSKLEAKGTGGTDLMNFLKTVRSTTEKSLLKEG
Outline: (§2)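 N-His human IDO (6 nM, 10 μM L-Trp, 5 μM methylene blue, 20 min) or TDO (1 nM, 350 μM L-Trp, 0.4 μM methylene blue, 70 min) run at room temp in pH 6.5 phosphate with ascorbate, catalase, Tween 20. TCA stop, 30 min 50 °C converts N-formylkynurenine to kynurenine; IC50 by nonlinear regression.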

[4] = target: T4, Human Tryptophan 2,3-dioxygenase (TDO) (Homo sapiens, UniProt P48775); test: Human TDO enzymatic assay (kynurenine level); assay type: biochemical; details: 1 nM TDO, 350 μM L-Trp; geometric mean; read-out: TDO GMean: IC50 (μM) (Biochemical Assay)
T4 construct: His tag (N); made in house; host or cells: E. coli
T4 sequence (P48775 whole entry): as the sequence (P48775 whole entry) above
Outline: as §2

Measured: IC50

T1 sequence (P14902 whole entry): as the sequence (P14902 whole entry) above

CC(C)(C1CCN(C(=O)CC(F)(F)F)CC1)[C@H](O)c1cc(Cl)cc2cn[nH]c12 [Compound P-0531, (S)-1-(4-(1-(5-chloro-1H-indazol-7-yl)-1-hydroxy-2-methylpropan-2-yl)piperidin-1-yl)-3,3,3-trifluoropropan-1-one]
0.0001 to 10 µM: all assays above

CC(C)(C1CCN(C(=O)CC2CCOCC2)CC1)[C@H](O)c1cc(Cl)cc2cn[nH]c12 [Compound P-0532, (S)-1-(4-(1-(5-chloro-1H-indazol-7-yl)-1-hydroxy-2-methylpropan-2-yl)piperidin-1-yl)-2-(tetrahydro-2H-pyran-4-yl)ethan-1-one]
0.0001 to 10 µM: all assays above

COCC(=O)N1CCC(C(C)(C)[C@H](O)c2cc(Cl)cc3cn[nH]c23)CC1 [Compound P-0533, (S)-1-(4-(1-(5-chloro-1H-indazol-7-yl)-1-hydroxy-2-methylpropan-2-yl)piperidin-1-yl)-2-methoxyethan-1-one]
0.0001 to 10 µM: all assays above

CC(C)(C1CCN(C(=O)CC#N)CC1)[C@H](O)c1cc(Cl)cc2cn[nH]c12 [Compound P-0534, (S)-3-(4-(1-(5-chloro-1H-indazol-7-yl)-1-hydroxy-2-methylpropan-2-yl)piperidin-1-yl)-3-oxopropanenitrile]
0.0001 to 10 µM: all assays above

CC(C)(C1CCN(C(=O)CO)CC1)[C@H](O)c1cc(Cl)cc2cn[nH]c12 [Compound P-0535, (S)-1-(4-(1-(5-chloro-1H-indazol-7-yl)-1-hydroxy-2-methylpropan-2-yl)piperidin-1-yl)-2-hydroxyethan-1-one]
0.0001 to 10 µM: all assays above

CC(C)(C1CCN(C(=O)c2cccnc2)CC1)[C@H](O)c1cc(Cl)cc2cn[nH]c12 [Compound P-0536, (S)-(4-(1-(5-chloro-1H-indazol-7-yl)-1-hydroxy-2-methylpropan-2-yl)piperidin-1-yl)(pyridin-3-yl)methanone]
0.0001 to 10 µM: all assays above

CC(C)(C1CCN(C(=O)c2ccc(C(F)(F)F)nc2)CC1)[C@H](O)c1cc(Cl)cc2cn[nH]c12 [Compound P-0537, (S)-(4-(1-(5-chloro-1H-indazol-7-yl)-1-hydroxy-2-methylpropan-2-yl)piperidin-1-yl)(6-(trifluoromethyl)pyridin-3-yl)methanone]
0.0001 to 10 µM: all assays above

CC(C)(C1CCN(C(=O)c2ccc(N3CCOCC3)nc2)CC1)[C@H](O)c1cc(Cl)cc2cn[nH]c12 [Compound P-0538, (S)-(4-(1-(5-chloro-1H-indazol-7-yl)-1-hydroxy-2-methylpropan-2-yl)piperidin-1-yl)(6-morpholinopyridin-3-yl)methanone]
0.0001 to 10 µM: all assays above

CC(C)(C1CCN(C(=O)C2C(C)(C)C2(C)C)CC1)[C@H](O)c1cc(Cl)cc2cn[nH]c12 [Compound P-0539, (S)-(4-(1-(5-chloro-1H-indazol-7-yl)-1-hydroxy-2-methylpropan-2-yl)piperidin-1-yl)(2,2,3,3-tetramethylcyclopropyl) methanone]
0.0001 to 10 µM: all assays above

COC(=O)N1CCC(C(C)(C)[C@H](O)c2cc(Cl)cc3cn[nH]c23)CC1 [Compound P-0540, methyl (S)-4-(1-(5-chloro-1H-indazol-7-yl)-1-hydroxy-2-methylpropan-2-yl)piperidine-1-carboxylate]
0.0001 to 10 µM: all assays above

Reference: patent US10508085B2, “Compounds and methods for IDO and TDO modulation, and indications therefor” (Plexxikon Inc., priority 2016, dated 2019)
